The source of these data is patent US10550089B2, “Inhibitors of protease-activated receptor-2” (Heptares Therapeutics Limited, priority 2016, dated 2020).

By IC50 is commonly meant the concentration that gives 50% inhibition.

For experiment [1], the target named is T1, PAR2 (Homo sapiens (Human), UniProt P55085). The experiment in a line: IP-One HTRF assay for PAR2 antagonist activity (IP1 production). It counts as cell-based. As for the experimental part:
Protocol for Testing Compounds for PAR2 Antagonist Activity Using an IP-One HTRF Assay
Inositol monophosphate (IP1) production were measured in 1321N1 cells stably expressing human PAR2 using an IP-One HTRF assay kit (Cisbio). […] After 60 min at 37° C. cells were lysed and IP1 concentrations were detected according to the manufacturers protocol (Cisbio). Data were normalized to IP1 concentrations using a IP1 standard curve according to the manufacturers protocol (Cisbio).

Experiment [2] addresses T1, PAR2. The experiment in a line: Trypsin activated FLPR Ca2+ mobilization assay for PAR2 antagonist activity. It counts as cell-based. As for the experimental part:
Trypin Activated FLPR Assay:
Protocol for Testing Compounds for PAR2 Antagonist Activity Using a Ca2+ Mobilization Assay
Calcium mobilization was measured using 1321N1 cells stably expressing human PAR2. Cells were seeded in 384-well plates at 4,000 cells per well in 20 μl DMEM with Glutamax supplemented with 10% FBS and incubated for 18-24 h at 37° C., 5% CO2 and 95% humidity. […] The addition was done using a FLIPR^TETRA (384-well head, Molecular Devices) and the response was read simultaneously to detect any agonist activity.

The target of experiment [3] is T1, PAR2. The experiment in a line: FLPR dissociation rate assay (PAR2 mean residence time). The format is cell-based. The following applies: cells washed after compound incubation (60-240 min); peptide agonist SLIGLR-NH2; read-out: FLPR Residence time t1/2. An excerpt:
FLPR Dissociation Rate Assay: Protocol for Testing Compounds for PAR2 Mean Residence Time
The peptide agonist SLIGLR-NH2 (ECso) was used in place of trypsin.

A further experiment deals with PAR1 (Homo sapiens (Human), UniProt P25116). The experiment in a line: β-arrestin type assay by DiscoverX against PAR1.
Setting [4] is: 1321N1 cells stably expressing human PAR2, agonist SLIGRL-NH2, read-out: hPAR2 IPpone IC50.
Where [5] appears, read: 1321N1 cells stably expressing human PAR2, agonist Trypsin, Vorapaxar present to block PAR1, read-out: hPAR2 FLPR (Trypsin) IC50.
Where [6] appears, read: hPAR2 IPpone IC50 (μM), 1321N1 cells stably expressing human PAR2, agonist SLIGRL-NH2.
Where [7] appears, read: hPAR2 FLPR (Trypsin) IC50 (μM), 1321N1 cells stably expressing human PAR2, agonist Trypsin, Vorapaxar present to block PAR1.

T1 sequence (P55085 26-397): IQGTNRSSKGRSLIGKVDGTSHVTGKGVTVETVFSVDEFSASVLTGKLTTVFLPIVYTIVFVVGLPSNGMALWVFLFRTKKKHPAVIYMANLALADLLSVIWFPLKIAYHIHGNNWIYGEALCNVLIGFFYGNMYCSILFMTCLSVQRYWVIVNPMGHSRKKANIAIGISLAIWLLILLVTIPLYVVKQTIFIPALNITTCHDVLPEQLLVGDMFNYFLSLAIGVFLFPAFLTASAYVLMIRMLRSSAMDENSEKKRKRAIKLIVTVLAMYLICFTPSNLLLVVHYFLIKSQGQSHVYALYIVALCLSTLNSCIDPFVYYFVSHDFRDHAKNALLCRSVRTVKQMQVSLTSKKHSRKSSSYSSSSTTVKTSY
PAR1, sequence (P25116 22-425): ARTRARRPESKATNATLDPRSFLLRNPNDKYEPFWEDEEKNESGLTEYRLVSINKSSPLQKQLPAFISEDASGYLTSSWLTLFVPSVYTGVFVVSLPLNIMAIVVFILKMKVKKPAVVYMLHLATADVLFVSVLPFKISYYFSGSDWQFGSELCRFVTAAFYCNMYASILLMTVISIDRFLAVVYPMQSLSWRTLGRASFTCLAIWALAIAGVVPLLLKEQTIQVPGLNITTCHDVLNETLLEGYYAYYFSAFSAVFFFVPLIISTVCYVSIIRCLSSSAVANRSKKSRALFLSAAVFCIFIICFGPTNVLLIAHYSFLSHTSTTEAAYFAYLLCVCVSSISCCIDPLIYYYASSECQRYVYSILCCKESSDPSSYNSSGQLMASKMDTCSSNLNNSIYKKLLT

Take `CCCc1cc(F)ccc1[C@H](O)c1ncc[nH]1` [Example 3, (S)-(4-Fluoro-2-propylphenyl)(1H-imidazol-2-yl)methanol]: the IC50 at PAR2 [1] (setting [4]) is 1.29 µM; on PAR2 [2] (setting [5]), 3.92 µM; at PAR1, > 50 µM. Also, the residence time at PAR2 [3] amounted to 62 min.
For the compound `CCc1ccc2c(F)ccc(C(O)c3ncc[nH]3)n12` (single isomer, unassigned) [Example 35, (3-Ethyl-8-fluoroindolizin-5-yl)(1H-imidazol-2-yl)methanol], on PAR1, the IC50 is > 50 µM.
Regarding `CCc1coc2c(F)ccc([C@H](O)c3ncc[nH]3)c12` (single isomer, unassigned) [Example 42], the half-inhibitory concentration (IC50) is 0.33 µM on PAR2 [1] (setting [6]) and 3.09 µM on PAR2 [2] (setting [7]). Besides, the residence time at PAR2 [3] is 119 min.
On to `OC(c1ncc[nH]1)c1ccc(F)cc1N1CCCC1` (single isomer, unassigned) [Example 16, (4-Fluoro-2-(pyrrolidin-1-yl)phenyl)(1H-imidazol-2-yl)methanol], for which the IC50 at PAR2 [1] (hPAR2 IPpone IC50 (μM)) came out at 0.96 µM; at PAR2 [2] (hPAR2 FLPR (Trypsin) IC50 (μM)), 10.1 µM. On PAR2 [3], the residence time amounted to 161 min.
As for `OC(c1ncc[nH]1)c1ccc(F)c2occ(C3CC3)c12` (single isomer, unassigned) [Example 44, (3-Cyclopropyl-7-fluorobenzofuran-4-yl)(1H-imidazol-2-yl)methanol], the IC50 on PAR2 [1] (setting [4]) is 6.54 µM; on PAR2 [2] (setting [5]) it was > 41 µM.
`C[C@@H]1CCN(c2cc(F)ccc2C(O)c2ncc[nH]2)C1` (stereo partly drawn) [Example 29, (4-Fluoro-2-((R)-3-methylpyrrolidin-1-yl)phenyl)(1H-imidazol-2-yl)methanol]: the IC50 on PAR2 [1] (setting [4]) was 13.1 µM; on PAR2 [2] (setting [5]), > 41.6 µM.
On to `OC(c1ncc[nH]1)c1ccc(F)c2occ(C3CC3)c12` (single isomer, unassigned) [Example 45, (3-Cyclopropyl-7-fluorobenzofuran-4-yl)(1H-imidazol-2-yl)methanol], for which the values for the concentration for half-maximal inhibition (IC50) at PAR2 [1] (setting [4]) and at PAR2 [2] (setting [5]) were 0.63 µM and 6.07 µM, respectively.
For `OC(c1ncc[nH]1)c1ccc(F)cc1N1CCC1` (stereo not shown) [Example 20, (2-(Azetidin-1-yl)-4-fluorophenyl)(1H-imidazol-2-yl)methanol], the IC50 on PAR2 [1] (setting [4]) amounted to 4.5 µM; on PAR2 [2] (setting [5]), 18.6 µM.
The matching figures for `OC(c1ncc[nH]1)c1ccc(F)c(F)c1-n1cccn1` (stereo not shown) [Example 22, (3,4-Difluoro-2-(1H-pyrazol-1-yl)phenyl)(1H-imidazol-2-yl)methanol]: 4.6 µM and 20 µM.
The matching figures for `CCCc1cc(F)ccc1[C@@H](O)c1ncc[nH]1` [Example 2, (R)-(4-fluoro-2-propylphenyl)(1H-imidazol-2-yl)methanol]: > 100 µM and > 41 µM.
As to `OC(c1ncc[nH]1)c1ccc(F)cc1N1CC2CC2C1` (stereo not shown) [Example 30, (2-(3-Azabicyclo[3.1.0]hexan-3-yl)-4-fluorophenyl)(1H-imidazol-2-yl)methanol], the 50% inhibitory concentration (IC50) on PAR2 [1] (setting [6]) is 4.67 µM; at PAR2 [2] (setting [7]), 11.6 µM.
With `CCCc1c(C(O)c2ncc[nH]2)ccc(F)c1F` (single isomer, unassigned) [Example 11, (3,4-Difluoro-2-propylphenyl)(1H-imidazol-2-yl)methanol], the half-maximal inhibitory concentration (IC50) is > 41 µM on PAR2 [1] (setting [4]) and > 77 µM at PAR2 [2] (setting [5]).
In the case of `OC(c1ncc[nH]1)c1ccc(F)cc1-c1cscn1` (stereo not shown) [Example 33, (4-Fluoro-2-(thiazol-4-yl)phenyl)(1H-imidazol-2-yl)methanol], the figures for the half-inhibitory concentration (IC50) against PAR2 [1] (hPAR2 IPpone IC50 (μM)) and against PAR2 [2] (hPAR2 FLPR (Trypsin) IC50 (μM)) were 3.6 µM and 16.8 µM, respectively.
In the case of `OC(c1ncc[nH]1)c1ccc(F)cc1C1CCC1` (stereo not shown) [Example 7, (2-Cyclobutyl-4-fluorophenyl)(1H-imidazol-2-yl)methanol], the IC50 at PAR2 [1] (setting [4]) came out at 11.5 µM; on PAR2 [2] (setting [5]) it was 7.85 µM.
